According to paper PMC12680861, “Comparative analysis of LJ-4378 and tirzepatide in mouse models of obesity and weight regain” (Archives of Pharmacal Research, 2025):
Like-named read-outs stand apart in the source and are kept apart here.

Columns and labels:
[1] = Plasma protein binding, Rapid Equilibrium Dialysis (RED); format: in vitro ADME, human; details: human, plasma (100%, sodium citrate), pH 7.4, 37 °C, read-out: Plasma free fraction (% Free), Human
Method: (§1) The plasma protein binding of LJ-4378 was evaluated using the Rapid Equilibrium Dialysis (RED) method with 100% plasma from human (Biochemed, BC22089NCP), rat (Innovative, IRT-N), and mouse (Biochemed, 029-APSC-MP), all treated with sodium citrate as an anticoagulant. The RED device (ThermoFisher Scientific, #89809) and reusable base plate (ThermoFisher Scientific, #89811) were used with an 8 K MWCO membrane. Test compounds were added to plasma at a final concentration of 10 μM and dialyzed against phosphate-buffered saline (PBS, pH 7.4; Hyclone, #SH30256.01) at 37 °C for 4 h. After incubation, equal volumes of plasma and PBS samples were mixed with blank PBS and blank plasma, respectively, followed by the addition of acetonitrile containing chlorpropamide (TRC, C424800) as the internal standard. […] All measurements were performed in duplicate with a deviation of less than 15% between replicates. The free fraction (% Free) was calculated as (concentration in buffer chamber/concentration in plasma chamber) × 100, and the bound fraction (% Bound) was obtained by subtracting % Free from 100. In cases where measurements were unstable, deviations greater than 15% were allowed.

[2] = as above; format: in vitro ADME, mouse; details: mouse, plasma (100%, sodium citrate), pH 7.4, 37 °C, read-out: Plasma free fraction (% Free), Mouse
Method: as §1

[3] = as above; format: in vitro ADME, rat; details: rat, plasma (100%, sodium citrate), pH 7.4, 37 °C, read-out: Plasma free fraction (% Free), Rat
Method: as §1

Plasma stability assay [4] = format: in vitro ADME, mouse; details: mouse, plasma (100%, sodium citrate), 37 °C; for remaining at 0.5 h, 10 μM: 30 min, read-out: % Remaining compound, Mouse plasma 30 min; for remaining at 2 h, 10 μM: 120 min, read-out: % Remaining compound, Mouse plasma 120 min
Method: (§2) The plasma stability of LJ-4378 was evaluated using 100% plasma obtained from human (Biochemed, BC22089NCP, sodium citrate), rat (Innovative, IRT-N, sodium citrate), and mouse (Biochemed, 029-APSC-MP, sodium citrate). 10 Μm of LJ-4378 was added to the plasma, and samples were incubated at 37 °C for 0, 30, and 120 min. At each time point, an aliquot of the plasma was removed and mixed with acetonitrile containing the internal standard, chlorpropamide (TRC, C424800). […] The supernatant was injected into the LC–MS/MS system for quantification of the remaining compound. Analysis was performed using a Nexera XR system (Shimadzu, Japan) with a TSQ Vantage mass spectrometer (Thermo, USA). […] Data acquisition was conducted in MRM mode using Xcalibur software (version 4.4). All experiments were performed in duplicate with a deviation within 15%, and the percentage of compound remaining (% Remaining) at each time point was calculated relative to the non-incubated control sample. For quality control, procaine and enalapril (each at 10 μM) were used as reference compounds and were confirmed to fall within acceptable ranges.

Plasma stability assay [5] = format: in vitro ADME, rat; details: rat, plasma (100%, sodium citrate), 37 °C; for remaining at 0.5 h, 10 μM: 30 min, read-out: % Remaining compound, Rat plasma 30 min; for remaining at 2 h, 10 μM: 120 min, read-out: % Remaining compound, Rat plasma 120 min
Method: as §2

Plasma stability assay [6] = format: in vitro ADME, human; details: human, plasma (100%, sodium citrate), 37 °C
Method: as §2

CYP2C9 = CYP2C9 (Homo sapiens, UniProt P11712); experiment: CYP enzyme inhibition in pooled human liver microsomes (diclofenac substrate); details: human, pooled human liver microsomes, pH 7.4
CYP2C9, sequence (P11712 whole entry, canonical isoform): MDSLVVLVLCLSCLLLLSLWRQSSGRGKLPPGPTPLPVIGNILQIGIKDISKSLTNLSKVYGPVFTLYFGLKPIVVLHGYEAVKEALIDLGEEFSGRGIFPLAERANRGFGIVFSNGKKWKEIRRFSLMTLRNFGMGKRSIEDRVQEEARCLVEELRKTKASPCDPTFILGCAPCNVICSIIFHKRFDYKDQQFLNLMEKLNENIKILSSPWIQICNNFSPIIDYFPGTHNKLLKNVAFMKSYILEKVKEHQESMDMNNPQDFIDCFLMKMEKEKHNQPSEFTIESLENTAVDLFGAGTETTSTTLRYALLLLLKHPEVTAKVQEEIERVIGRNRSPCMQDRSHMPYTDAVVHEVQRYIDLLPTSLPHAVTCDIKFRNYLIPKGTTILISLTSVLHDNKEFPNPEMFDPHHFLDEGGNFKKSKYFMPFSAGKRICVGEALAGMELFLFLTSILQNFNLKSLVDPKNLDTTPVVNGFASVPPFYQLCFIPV
Method: (§3) Cytochrome 450 (CYP) enzyme inhibition was evaluated using pooled human liver microsomes (Corning, #452117). […] Substrates and corresponding metabolites for each CYP isoform were as follows: phenacetin and acetaminophen for CYP1A2 (Sigma Aldrich, #77440 and A7085, respectively), diclofenac and 4'-hydroxydiclofenac for CYP2C9 (Sigma Aldrich, D6899; TRC, H825225), S-mephenytoin and 4'-hydroxymephenytoin for CYP2C19 (Sigma Aldrich, UC175; Santacruz, sc210197), dextromethorphan and dextrorphan for CYP2D6 (Sigma Aldrich, #81091 and UC205), and midazolam and 1'-hydroxymidazolam for CYP3A4 (KFDA; Sigma Aldrich, UC430).
(§4) Samples were preincubated at 37 °C for 5 min, and the reaction was initiated by the addition of the NADPH regeneration system, followed by incubation at 37 °C for 15 min. The reaction was terminated by adding acetonitrile containing the internal standard, and centrifuged at 15,000 rpm for 5 min at 4 °C. The supernatant was analyzed by LC–MS/MS using a Nexera XR system (Shimadzu, Japan) coupled with a TSQ Vantage mass spectrometer (Thermo, USA). […] Metabolites were quantified in multiple reaction monitoring (MRM) mode with Xcalibur software (version 4.4).
(§5) All experiments were performed in duplicate with variability ≤ 15%. The percent activity of each CYP enzyme was calculated based on metabolite formation relative to the no-inhibitor control.

CYP1A2 = target: T1, CYP1A2 (Homo sapiens, UniProt P05177); experiment: CYP enzyme inhibition in pooled human liver microsomes (phenacetin substrate); details: human, pooled human liver microsomes, pH 7.4
T1 sequence (P05177 1-516): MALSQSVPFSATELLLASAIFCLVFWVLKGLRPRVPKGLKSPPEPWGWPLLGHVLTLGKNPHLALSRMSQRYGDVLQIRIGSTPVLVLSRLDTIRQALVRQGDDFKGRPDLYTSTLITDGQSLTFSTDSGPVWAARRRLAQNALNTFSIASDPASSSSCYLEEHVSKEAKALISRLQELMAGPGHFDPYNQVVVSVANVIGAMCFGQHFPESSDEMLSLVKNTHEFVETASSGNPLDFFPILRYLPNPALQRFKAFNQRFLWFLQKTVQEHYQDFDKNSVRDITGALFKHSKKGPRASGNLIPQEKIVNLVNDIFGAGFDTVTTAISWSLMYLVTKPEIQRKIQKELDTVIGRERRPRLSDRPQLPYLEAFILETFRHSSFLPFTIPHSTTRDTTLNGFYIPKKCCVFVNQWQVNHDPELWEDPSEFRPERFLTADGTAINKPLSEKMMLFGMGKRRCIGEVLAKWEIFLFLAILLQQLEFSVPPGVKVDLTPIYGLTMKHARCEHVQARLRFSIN
Method: as §3, §4, §5

CYP2C19 = CYP2C19 (Homo sapiens, UniProt P33261); experiment: CYP enzyme inhibition in pooled human liver microsomes (S-mephenytoin substrate); details: human, pooled human liver microsomes, pH 7.4
CYP2C19, sequence (P33261 whole entry): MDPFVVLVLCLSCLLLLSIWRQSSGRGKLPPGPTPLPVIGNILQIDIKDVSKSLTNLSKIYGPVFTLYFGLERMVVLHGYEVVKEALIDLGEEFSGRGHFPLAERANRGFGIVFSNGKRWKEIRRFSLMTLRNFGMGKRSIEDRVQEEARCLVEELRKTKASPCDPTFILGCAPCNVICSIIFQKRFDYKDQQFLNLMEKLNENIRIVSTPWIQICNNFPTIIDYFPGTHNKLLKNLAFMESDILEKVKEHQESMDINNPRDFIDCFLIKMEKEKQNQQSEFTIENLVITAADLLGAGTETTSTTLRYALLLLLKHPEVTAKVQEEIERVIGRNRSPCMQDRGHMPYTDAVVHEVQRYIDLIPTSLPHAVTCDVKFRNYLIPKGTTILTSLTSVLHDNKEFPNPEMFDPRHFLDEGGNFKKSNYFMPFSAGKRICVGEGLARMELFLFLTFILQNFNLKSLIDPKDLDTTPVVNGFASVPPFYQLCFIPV
Method: as §3, §4, §5

With `C[C@@H]1C[C@H]2[C@@H]3CCC4=CC(=O)C=C[C@]4(C)[C@@]3(F)[C@@H](O)C[C@]2(C)[C@@]1(O)C(=O)CO` [Dexamethasone] the fraction unbound at 4 h, 10 μM [1] was 0.359, the fraction unbound at 4 h, 10 μM [2] was 0.297 and the fraction unbound at 4 h, 10 μM [3] was 0.222.
In the case of `CCOC(=O)[C@H](CCc1ccccc1)N[C@@H](C)C(=O)N1CCC[C@H]1C(=O)O` [Enalapril, enalapril], the remaining at 0.5 h, 10 μM (Plasma stability assay [4]) is reported as 66%, the remaining at 2 h, 10 μM (Plasma stability assay [4]) is reported as 26.3% and the remaining at 0.5 h, 10 μM (Plasma stability assay [5]) is reported as 34.5%. It also gave a remaining at 2 h, 10 μM (Plasma stability assay [5]) of 1.4%, a remaining at 0.5 h, 10 μM (Plasma stability assay [6]; 30 min, read-out: % Remaining compound, Human plasma 30 min) greater than 100% and a remaining at 2 h, 10 μM (Plasma stability assay [6]; 120 min, read-out: % Remaining compound, Human plasma 120 min) of 95.9%.
With `CC(=O)N1CCN(c2ccc(OCC3COC(Cn4ccnc4)(c4ccc(Cl)cc4Cl)O3)cc2)CC1` (stereo not drawn) [Ketoconazole, ketoconazole, reference compound] the activity at 15 min, 10 µM (CYP2C9) was 98%, the activity at 15 min, 10 µM (CYP1A2) was 98.3% and the activity at 15 min, 10 µM (CYP2C19) was greater than 100%.
In the case of `CCN(CC)CCOC(=O)c1ccc(N)cc1` [Procaine, procaine], the remaining at 0.5 h, 10 μM (Plasma stability assay [4]) is reported as 7%, the remaining at 2 h, 10 μM (Plasma stability assay [4]) is reported as less than 1% and the remaining at 0.5 h, 10 μM (Plasma stability assay [5]) is reported as 85.2%. It also gave a remaining at 2 h, 10 μM (Plasma stability assay [5]) of 45.2%, a remaining at 5 min, 10 μM (Plasma stability assay [6]; 5 min (printed in the 30 min column), read-out: % Remaining compound, Human plasma 5 min) of 1.2% and a remaining at 10 min, 10 μM (Plasma stability assay [6]; 10 min (printed in the 120 min column), read-out: % Remaining compound, Human plasma 10 min) of less than 1%.
For `CC(=O)CC(c1ccccc1)c1c(O)c2ccccc2oc1=O` (stereo not drawn) [Warfarin], the fraction unbound at 4 h, 10 μM [1] was 0.006, the fraction unbound at 4 h, 10 μM [2] was 0.062 and the fraction unbound at 4 h, 10 μM [3] was 0.01.
